One assay concerns AMPK. Kind of assay: AMPK activity in a cell model: hepatocytes isolated from rats. Type of assay: cell-based, rat. As to conditions: 500 μM, after 30 minutes, SAMS peptide phosphorylation with [γ-32P]-ATP. The method, then: AMPK Activity in a Cell Model: Hepatocytes Isolated from Rats
The hepatocytes are isolated according to the technique of Berry and Friend [J. Cell Biol, 43, 506–520 (1969)]. The AMPK activity was measured according to the method described by Davies el al. [Eur. J. Biochem., 186, 123–128 (1989)]. The latter involves phosphorylation starting from [γ-^32P]-ATP of a peptide substrate (SAMS), based on the sequence surrounding the site phosphorylated by the AMPK of the ACC. The reaction for measuring the AMPK activity ends with the deposition of an aliquot of the reaction medium on a phosphocellulose paper (Whatman P81), on which the SAMS peptide is fixed and the radioactivity of which is measured after washing.
By way of example, the compound of Example 4 activates AMPK, after 30 minutes at a concentration of 500 μM, by 312% (compared with the base value), whereas the same concentration of AICA riboside, used as reference, under the same conditions, activates it by 178%.

The subject of another assay is obese ob/ob mouse. Kind of assay: Hypolipaemic activity in the obese ob/ob mouse. Format: in vivo. The method, then: The products of the invention were tested in vivo in the obese ob/ob mouse, used as a model of obesity-associated insulin resistance.

Molecules are shown by their SMILES.

For the compound `NC(=O)c1ncn([C@@H]2O[C@H](CO)[C@@H](O)[C@H]2O)c1N` [AICA riboside], the “AMPK activation (compared with the base value)” value with AMPK came to 178%.
In the case of `Nc1nc2cccnc2n1C1CCCCCC1` [Example 4, 3-Cycloheptyl-3H-imidazo[4,5-b]pyridine-2-amine], the reduction of triglycerides entry in the assay with obese ob/ob mouse (125 mg/kg per os) was “significantly reduces the triglycerides”. Moreover, the “AMPK activation (compared with the base value)” value with AMPK stood at 312%.
In the case of `CN(C)C(=N)N=C(N)N` [metformin], the reduction of triglycerides result with obese ob/ob mouse (250 mg/kg per os) is given as “the same reduction is obtained”.

Values taken from patent US7098220B2, “Imidazopyridine derivatives, preparation method and pharmaceutical compositions containing same” (Les Laboratoires Servier, priority 2002, dated 2006).
